In brackets after ≈: the same amount, converted by molar mass.
Legend:
Klebsiella pneumoniae [1] = assay: Antimicrobial activity of the Compound was tested for minimum inhibitory concentration against Klebsiella pneumoniae 806; type: functional
Klebsiella pneumoniae [2] = assay: Antimicrobial activity of the Compound was tested for minimum inhibitory concentration against Klebsiella pneumoniae 846(R); type: functional
Candida albicans [3] = assay: Antimicrobial activity of the Compound was tested for minimum inhibitory concentration against Candida albicans; type: functional
Shigella flexneri [4] = assay: Antimicrobial activity of the Compound was tested for minimum inhibitory concentration against Shigella flexneriII D642; type: functional
Serratia marcescens = assay: Antimicrobial activity of the Compound was tested for minimum inhibitory concentration against Serratia marcescens 1184; type: functional
Bacillus subtilis = assay: Antimicrobial activity of the Compound was tested for minimum inhibitory concentration against Bacillus subtilis ATCC 6633; type: functional
Pseudomonas aeruginosa [5] = assay: Antimicrobial activity of the Compound was tested for minimum inhibitory concentration against Pseudomonas aeruginosa N07; type: functional
Enterococcus faecalis = assay: Antimicrobial activity of the Compound was tested for minimum inhibitory concentration against Enterococcus faecalis 681; type: functional
Escherichia coli [6] = assay: Antimicrobial activity of the Compound was tested for minimum inhibitory concentration against Escherichia coli 609; type: functional
Escherichia coli [7] = assay: Antimicrobial activity of the Compound was tested for minimum inhibitory concentration against Escherichia coli NIHJ; type: functional
Enterobacter cloacae = assay: Antimicrobial activity of the Compound was tested for minimum inhibitory concentration against Enterobacter cloacae 963; type: functional
Salmonella enteritidis = assay: Antimicrobial activity of the Compound was tested for minimum inhibitory concentration against Salmonella enteritidis; type: functional, Salmonella enterica subsp. enterica serovar Enteritidis; details: Salmonella enterica
Trichophyton rubrum [8] = assay: Antimicrobial activity of the Compound was tested for minimum inhibitory concentration against Trichophyton rubrum; type: functional
Pseudomonas aeruginosa [9] = assay: Antimicrobial activity of the Compound was tested for minimum inhibitory concentration against Pseudomonas aeruginosa 1001; type: functional
Staphylococcus aureus [10] = assay: Antimicrobial activity of the Compound was tested for minimum inhibitory concentration against Staphylococcus aureus 56R; type: functional
Trichophyton benhamiae [11] = assay: Antimicrobial activity of the Compound was tested for minimum inhibitory concentration against Trichophyton mentagrophytes; type: functional, Arthroderma benhamiae
Staphylococcus aureus [12] = assay: Antimicrobial activity of the Compound was tested for minimum inhibitory concentration against Staphylococcus aureus 535 (MRSA); type: functional
Proteus vulgaris = assay: Antimicrobial activity of the Compound was tested for minimum inhibitory concentration against Proteus vulgaris 1420; type: functional
Staphylococcus aureus [13] = assay: Antimicrobial activity of the Compound was tested for minimum inhibitory concentration against Staphylococcus aureus 209P; type: functional
[14] = system: Trichophyton interdigitale; assay: Antimicrobial activity of the Compound was tested for minimum inhibitory concentration against Trichophyton interdigitale; type: functional
Candida albicans [15] = assay: Antimicrobial activity of the Compound was tested for minimum inhibitory concentration against Candida albicans SC; type: functional
Nannizzia gypsea = assay: Antimicrobial activity of the Compound was tested for minimum inhibitory concentration against Microsporum gypseum 11268; type: functional
Trichophyton benhamiae [16] = assay: Antimicrobial activity of the Compound was tested for minimum inhibitory concentration against Trichophyton mentagrophytes SC; type: functional, Arthroderma benhamiae
Cryptococcus neoformans = assay: Antimicrobial activity of the Compound was tested for minimum inhibitory concentration against Cryptococcus neoformans 58063; type: functional
Mucor mucedo = assay: Antimicrobial activity of the Compound was tested for minimum inhibitory concentration against Mucor mucedo 14358; type: functional
Aspergillus fumigatus = assay: Antimicrobial activity of the Compound was tested for minimum inhibitory concentration against Aspergillus fumigatus 10569; type: functional
Trichophyton rubrum [17] = assay: Antimicrobial activity of the Compound was tested for minimum inhibitory concentration against Trichophyton rubrum SC; type: functional
Shigella flexneri [18] = assay: Antimicrobial activity of the Compound was tested for minimum inhibitory concentration against Shigella flexneri IID642; type: functional

MIC (Klebsiella pneumoniae [1]) [µg/mL] | MIC (Klebsiella pneumoniae [2]) [µg/mL] | MIC (Candida albicans [3]) [µg/mL] | MIC (Shigella flexneri [4]) [µg/mL] | MIC (Serratia marcescens) [µg/mL] | MIC (Bacillus subtilis) [µg/mL] | MIC (Pseudomonas aeruginosa [5]) [µg/mL] | MIC (Enterococcus faecalis) [µg/mL] | MIC (Escherichia coli [6]) [µg/mL] | MIC (Escherichia coli [7]) [µg/mL] | MIC (Enterobacter cloacae) [µg/mL] | MIC (Salmonella enteritidis) [µg/mL] | MIC (Trichophyton rubrum [8]) [µg/mL] | MIC (Pseudomonas aeruginosa [9]) [µg/mL] | MIC (Staphylococcus aureus [10]) [µg/mL] | MIC (Trichophyton benhamiae [11]) [µg/mL] | MIC (Staphylococcus aureus [12]) [µg/mL] | MIC (Proteus vulgaris) [µg/mL] | MIC (Staphylococcus aureus [13]) [µg/mL] | MIC [14] [µg/mL] | Compound | also measured
3.1 (≈ 16 µM) | 0.8 (≈ 4.12 µM) | 0.8 (≈ 4.12 µM) | 0.4 (≈ 2.06 µM) | 0.8 (≈ 4.12 µM) | 0.8 (≈ 4.12 µM) | > 12.5 | 3.1 (≈ 16 µM) | 1.5 (≈ 7.72 µM) | 0.8 (≈ 4.12 µM) | > 12.5 | 0.8 (≈ 4.12 µM) | 0.2 (≈ 1.03 µM) | > 12.5 | 0.2 (≈ 1.03 µM) | 0.2 (≈ 1.03 µM) | 0.1 (≈ 0.515 µM) | 0.8 (≈ 4.12 µM) | 0.2 (≈ 1.03 µM) | 0.2 (≈ 1.03 µM) | C#CC#CC#CC#C/C=C/C=C/[C@@H](C)O | 
> 25 | > 25 | 3.1 (≈ 16 µM) | 0.8 (≈ 4.12 µM) | > 25 | 0.4 (≈ 2.06 µM) | > 25 | 3.1 (≈ 16 µM) | > 25 | > 25 | > 25 | > 25 | < 0.1 | > 25 | 0.2 (≈ 1.03 µM) | < 0.1 | 0.2 (≈ 1.03 µM) | 0.8 (≈ 4.12 µM) | 0.2 (≈ 1.03 µM) | < 0.1 | C#CC#CC#CC#CC(O)/C=C/C=C/C (configuration not stated) | MIC (Candida albicans [15]): 3.1 µg/mL (≈ 16 µM); MIC (Nannizzia gypsea): 0.4 µg/mL (≈ 2.06 µM); MIC (Trichophyton benhamiae [16]): < 0.02 µg/mL; MIC (Cryptococcus neoformans): 0.8 µg/mL (≈ 4.12 µM); MIC (Mucor mucedo): 0.2 µg/mL (≈ 1.03 µM); MIC (Aspergillus fumigatus): 1.5 µg/mL (≈ 7.72 µM); MIC (Trichophyton rubrum [17]): < 0.02 µg/mL
> 25 | 12.5 (≈ 63.7 µM) | 6.2 (≈ 31.6 µM) | 6.2 (≈ 31.6 µM) | > 25 | 6.2 (≈ 31.6 µM) | > 25 | 12.5 (≈ 63.7 µM) | > 25 | 25 (≈ 127 µM) | > 25 | 25 (≈ 127 µM) | 0.8 (≈ 4.08 µM) | > 25 | 1.5 (≈ 7.64 µM) |  | 0.8 (≈ 4.08 µM) | 3.1 (≈ 15.8 µM) | 1.5 (≈ 7.64 µM) | 1.5 (≈ 7.64 µM) | C#CC#CC#CC#CC1(O)CCCCC1 | 
> 50 | 12.5 (≈ 73.4 µM) | 1.5 (≈ 8.81 µM) |  | > 50 | 12.5 (≈ 73.4 µM) | > 50 | 12.5 (≈ 73.4 µM) | 25 (≈ 147 µM) | 25 (≈ 147 µM) | > 50 | 25 (≈ 147 µM) | 0.4 (≈ 2.35 µM) | > 50 | 0.8 (≈ 4.7 µM) | 0.8 (≈ 4.7 µM) | 0.8 (≈ 4.7 µM) | 12.5 (≈ 73.4 µM) | 0.8 (≈ 4.7 µM) | 0.8 (≈ 4.7 µM) | C#CC#CC#C/C=C/C=C/C(C)O (configuration not stated) | MIC (Candida albicans [15]): 1.5 µg/mL (≈ 8.81 µM); MIC (Nannizzia gypsea): 0.8 µg/mL (≈ 4.7 µM); MIC (Trichophyton benhamiae [16]): 0.4 µg/mL (≈ 2.35 µM); MIC (Cryptococcus neoformans): 1.5 µg/mL (≈ 8.81 µM); MIC (Mucor mucedo): 6.2 µg/mL (≈ 36.4 µM); MIC (Aspergillus fumigatus): 6.2 µg/mL (≈ 36.4 µM); MIC (Shigella flexneri [18]): 6.2 µg/mL (≈ 36.4 µM); MIC (Trichophyton rubrum [17]): 0.4 µg/mL (≈ 2.35 µM)
1.5 (≈ 7.72 µM) | 0.8 (≈ 4.12 µM) | 1.5 (≈ 7.72 µM) | 0.8 (≈ 4.12 µM) | 0.8 (≈ 4.12 µM) | 0.8 (≈ 4.12 µM) | > 25 | 3.1 (≈ 16 µM) | 0.8 (≈ 4.12 µM) | 0.8 (≈ 4.12 µM) | > 25 | 0.8 (≈ 4.12 µM) | 0.2 (≈ 1.03 µM) | > 25 | 0.2 (≈ 1.03 µM) |  | 0.2 (≈ 1.03 µM) | 0.8 (≈ 4.12 µM) | 0.2 (≈ 1.03 µM) | 0.8 (≈ 4.12 µM) | C#CC#CC#CC#C/C=C/C=C/C(C)O (racemic) | 
> 25 | 3.1 (≈ 16 µM) | 1.5 (≈ 7.72 µM) | 0.8 (≈ 4.12 µM) | 1.5 (≈ 7.72 µM) | 0.8 (≈ 4.12 µM) | > 25 | 6.2 (≈ 31.9 µM) | 3.1 (≈ 16 µM) | 1.5 (≈ 7.72 µM) | > 25 | 3.1 (≈ 16 µM) | 0.2 (≈ 1.03 µM) | > 25 | 0.2 (≈ 1.03 µM) | 0.4 (≈ 2.06 µM) | 0.2 (≈ 1.03 µM) | 1.5 (≈ 7.72 µM) | 0.2 (≈ 1.03 µM) | 0.4 (≈ 2.06 µM) | C#CC#CC#CC#C/C=C/C=C/[C@H](C)O | 

Source: ChEMBL document CHEMBL1128593, “Chemistry and antimicrobial activity of caryoynencins analogs” (1995)
